Where two headings read alike, the source gives them in different places.
Key:
20S proteasome = 20S proteasome (Homo sapiens, UniProt P28074); test: 20S proteasome inhibition assay in whole blood; type: in vivo, patients; conditions: for Inhibition of 20S proteasome activity: whole blood
Description: (§1) In patients participating in pharmacokinetic analysis, blood samples were taken on day 1, cycle 1, to determine the plasma concentration time profile of docetaxel and bortezomib. Samples were collected immediately before docetaxel infusion and bortezomib injection and at prespecified intervals on day 1. Samples were also taken for bortezomib pharmacokinetic analysis on day 11 of cycle 1. Whole-blood samples were taken for pharmacodynamic analysis using 20S proteasome inhibition assay ([Lightcap et al, 2000]) immediately before and 1 h after bortezomib dosing on days 1 and 11 of cycles 1 and 2, and on days 2 and 12 of cycle 1, in a subset of patients participating in pharmacokinetic analysis.

[1] = tested on: HER2-positive breast cancer cell lines; set-up: method as in Cardoso et al, 2006; conditions: HER2-positive cells, four cell lines ref Cardoso et al, 2006; cited from earlier work
[2] = Plasma pharmacokinetics of bortezomib and docetaxel given in combination; type: in vivo, patients; conditions: for AUC(0-t) / AUC(0-inf) / clearance / half-life / Vd: human, plasma, intravenous; for AUC(0-t): read-out: AUC0–t, mean (%CV); for AUC(0-inf): read-out: AUC0–∞∞, mean (%CV); for clearance: read-out: CL, mean (%CV) (converted)
Description: as §1

[3] = 1 mg, bortezomib 1.0 mg m^−2 (n=5), day 1, with docetaxel
[4] = 1 mg, bortezomib 1.0 mg m^−2 (n=5), day 11
[5] = 1.3 mg, bortezomib 1.3 mg m^−2 (n=3), day 1, with docetaxel
[6] = 1.3 mg, bortezomib 1.3 mg m^−2 (n=3), day 11
[7] = 1.5 mg, bortezomib 1.5 mg m^−2 (n=6), day 11
[8] = 1.5 mg, bortezomib 1.5 mg m^−2 (n=8), day 1, with docetaxel

Sequence of 20S proteasome (P28074 60-263): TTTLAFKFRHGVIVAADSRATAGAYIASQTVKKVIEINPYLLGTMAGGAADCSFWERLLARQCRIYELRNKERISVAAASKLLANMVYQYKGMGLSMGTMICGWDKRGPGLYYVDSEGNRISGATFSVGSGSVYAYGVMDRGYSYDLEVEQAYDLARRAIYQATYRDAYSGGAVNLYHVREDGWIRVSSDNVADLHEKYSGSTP

For `CC(C)C[C@H](NC(=O)[C@H](Cc1ccccc1)NC(=O)c1cnccn1)B(O)O` [Bortezomib], the “Percent 20S proteasome inhibition, cycle 2 versus cycle 1” value (20S proteasome; all dose groups) was “greater in cycle 2 than cycle 1”, the “Inhibition of 20S proteasome activity” value (20S proteasome; 1 h post-dose) was 46.14–88.80% and the “Inhibition of 20S proteasome activity” value (20S proteasome; immediately prior to the dose on day 11) was 10.93–51.18%. For the same compound, the “Effect on the effect of trastuzumab” value [1] was “acts synergistically”, the “C0, mean (%CV)” value ([2]; bortezomib 1.0 mg m^−2 (n=5), day 1, with docetaxel) was 208 (34) ng ml^−1 and the “C0, mean (%CV)” value ([2]; bortezomib 1.0 mg m^−2 (n=5), day 11) was 552 (148) ng ml^−1. The “C0, mean (%CV)” value ([2]; bortezomib 1.3 mg m^−2 (n=3), day 1, with docetaxel) was 137 (54) ng ml^−1, the “C0, mean (%CV)” value ([2]; bortezomib 1.3 mg m^−2 (n=3), day 11) was 237 (59) ng ml^−1 and the “C0, mean (%CV)” value ([2]; bortezomib 1.5 mg m^−2 (n=6), day 11) was 153 (41) ng ml^−1. For the same compound, the “C0, mean (%CV)” value ([2]; bortezomib 1.5 mg m^−2 (n=8), day 1, with docetaxel) was 268 (71) ng ml^−1, the AUC(0-t) [2, 3] was 43 ng·h/mL and the AUC(0-inf) [2, 3] was 54.6 ng·h/mL. It also gave a clearance [2, 3] of 562 mL/min, a half-life ([2]; 1 mg, bortezomib 1.0 mg m^−2 (n=5), day 1, with docetaxel, read-out: T½,z, mean (%CV) (converted)) of 9.15 h and a Vd ([2]; 1 mg, bortezomib 1.0 mg m^−2 (n=5), day 1, with docetaxel, read-out: Vss, mean (%CV)) of 222 L. For the same compound, the Vd ([2]; 1 mg, bortezomib 1.0 mg m^−2 (n=5), day 1, with docetaxel, read-out: Vz, mean (%CV)) was 408 L, the AUC(0-t) [2, 4] was 112 ng·h/mL and the AUC(0-inf) [2, 4] was 133 ng·h/mL. The clearance [2, 4] was 225 mL/min, the half-life ([2]; 1 mg, bortezomib 1.0 mg m^−2 (n=5), day 11, read-out: T½,z, mean (%CV) (converted)) was 12.2 h and the Vd ([2]; 1 mg, bortezomib 1.0 mg m^−2 (n=5), day 11, read-out: Vss, mean (%CV)) was 151 L. For the same compound, the Vd ([2]; 1 mg, bortezomib 1.0 mg m^−2 (n=5), day 11, read-out: Vz, mean (%CV)) was 237 L, the half-life ([2]; 1 mg, bortezomib 1.0 mg m^−2, day 1, patients with measurable plasma concentrations at 24 h post-dose (n=2), read-out: T½,z 24-h, mean (converted)) was 15.1 h and the half-life ([2]; 1 mg, bortezomib 1.0 mg m^−2, day 11, patients with measurable plasma concentrations at 24 h post-dose (n=4), read-out: T½,z 24-h, mean (converted)) was 14.3 h. The AUC(0-t) [2, 5] was 35.5 ng·h/mL, the AUC(0-inf) [2, 5] was 49 ng·h/mL and the clearance [2, 5] was 850 mL/min. The half-life ([2]; 1.3 mg, bortezomib 1.3 mg m^−2 (n=3), day 1, with docetaxel, read-out: T½,z, mean (%CV) (converted)) was 14.2 h, the Vd ([2]; 1.3 mg, bortezomib 1.3 mg m^−2 (n=3), day 1, with docetaxel, read-out: Vss, mean (%CV)) was 596 L and the Vd ([2]; 1.3 mg, bortezomib 1.3 mg m^−2 (n=3), day 1, with docetaxel, read-out: Vz, mean (%CV)) was 924 L. The AUC(0-t) [2, 6] was 90.5 ng·h/mL, the AUC(0-inf) [2, 6] was 111 ng·h/mL and the clearance [2, 6] was 350 mL/min. It also gave a half-life ([2]; 1.3 mg, bortezomib 1.3 mg m^−2 (n=3), day 11, read-out: T½,z, mean (%CV) (converted)) of 12.2 h, a Vd ([2]; 1.3 mg, bortezomib 1.3 mg m^−2 (n=3), day 11, read-out: Vss, mean (%CV)) of 237 L and a Vd ([2]; 1.3 mg, bortezomib 1.3 mg m^−2 (n=3), day 11, read-out: Vz, mean (%CV)) of 374 L. It also gave a half-life ([2]; 1.3 mg, bortezomib 1.3 mg m^−2, day 1, patients with measurable plasma concentrations at 24 h post-dose (n=2), read-out: T½,z 24-h, mean (converted)) of 18.1 h, a half-life ([2]; 1.3 mg, bortezomib 1.3 mg m^−2, day 11, patients with measurable plasma concentrations at 24 h post-dose (n=2), read-out: T½,z 24-h, mean (converted)) of 17.1 h and an AUC(0-t) [2, 7] of 103 ng·h/mL. For the same compound, the AUC(0-inf) [2, 7] was 161 ng·h/mL, the clearance [2, 7] was 267 mL/min and the half-life ([2]; 1.5 mg, bortezomib 1.5 mg m^−2 (n=6), day 11, read-out: T½,z, mean (%CV) (converted)) was 23.6 h. The Vd ([2]; 1.5 mg, bortezomib 1.5 mg m^−2 (n=6), day 11, read-out: Vss, mean (%CV)) was 391 L, the Vd ([2]; 1.5 mg, bortezomib 1.5 mg m^−2 (n=6), day 11, read-out: Vz, mean (%CV)) was 538 L and the AUC(0-t) [2, 8] was 69 ng·h/mL. The AUC(0-inf) [2, 8] was 85.3 ng·h/mL, the clearance [2, 8] was 615 mL/min and the half-life ([2]; 1.5 mg, bortezomib 1.5 mg m^−2 (n=8), day 1, with docetaxel, read-out: T½,z, mean (%CV) (converted)) was 6.9 h. The Vd ([2]; 1.5 mg, bortezomib 1.5 mg m^−2 (n=8), day 1, with docetaxel, read-out: Vss, mean (%CV)) was 209 L, the Vd ([2]; 1.5 mg, bortezomib 1.5 mg m^−2 (n=8), day 1, with docetaxel, read-out: Vz, mean (%CV)) was 282 L and the half-life ([2]; 1.5 mg, bortezomib 1.5 mg m^−2, day 1, patients with measurable plasma concentrations at 24 h post-dose (n=2), read-out: T½,z 24-h, mean (converted)) was 17.8 h. It also gave a half-life ([2]; 1.5 mg, bortezomib 1.5 mg m^−2, day 11, patients with measurable plasma concentrations at 24 h post-dose, read-out: T½,z 24-h, mean (converted)) of 23.6 h and a half-life ([2]; following the first dose, patients with measurable plasma concentrations at 24 h post-dose, read-out: Terminal half-lives, mean values across dose levels) of 15 to 18 h.

— PMC2391111 (British Journal of Cancer, 2008)
